Laboratory results: patent publication US20220241413A1, “COMBINATION THERAPIES USING CD-38 ANTIBODIES” (Takeda Pharmaceutical Company Limited, priority 2019, published 2022)

Experiments:
human CD38 = human CD38 (Homo sapiens, UniProt P28907); experiment: Biacore affinity to human CD38; format: binding
Excerpt: Other Morphosys antibodies targeting CD38 are known (see, e.g., WO 2006/125640, which discloses four human antibodies: MOR03077, MOR03079, MOR03080, and MOR03100 and two murine antibodies: OKT10 and IB4). […] Moreover, the prior art antibodies have poor ADCC as well as CDC activity.

[1] = system: newly diagnosed multiple myeloma (NDMM); experiment: AB79-1002 phase 1b study, AB79 with LenDex or VRd in NDMM: disease response; format: in vivo, human; conditions: total population including both backbone regimens, one patient pending
Excerpt: This is a Phase 1b, open-label, multicenter study to evaluate the safety, efficacy, tolerability, and pharmacokinetics (PK) of AB79 when added to 1 of 2 standard backbone regimens (lenalidomide plus dexamethasone [LenDex] or bortezomib [Velcade] plus lenalidomide and dexamethasone [VRd]) in adult patients with newly diagnosed multiple myeloma (NDMM) for whom stem cell transplantation (SCT) is not planned as initial therapy. The dose and schedule for the backbone regimens (LenDex and VRd) are given in accordance with product labeling or standard medical practice. Treatment cycles are 28 days until disease progression (PD) or unacceptable toxicity occurs. Treatment may be discontinued for other reasons listed below. AB79 is supplied by the sponsor. Bortezomib, dexamethasone, and lenalidomide are standard-of-care agents that are supplied from commercial sources. […]
Efficacy assessment of tumor response and disease progression are conducted in accordance with IMWG criteria. […] Bone marrow examinations, skeletal surveys, computed tomography (CT) or magnetic resonance imaging ([…]) to evaluate lytic and/or extramedullary plasmacytomas, and serum calcium corrected for albumin are evaluated as necessary based on patient's baseline disease status. […]

[2] = system: plasmablasts in peripheral blood; experiment: Phase 1 study in healthy subjects (AB79-101): plasmablast levels; format: in vivo, human; conditions: SC
Method: In a phase 1 study in healthy subjects (Study AB79-101), AB79 reduced the levels of peripheral blood and natural killer (NK) cells >90% from baseline in all subjects receiving a single 0.06 mg/kg IV dose of AB79, with a maximum observed concentration (Cmax) of 0.1 μg/mL. (U.S. Pat. No. 8,362,211; U.S. International Patent Application Serial Nos. PCT/US2019/013547 and PCT/US2019/024431). […] Potent reduction of plasmablasts was observed across cohorts of patients in the RRMM trial (Study AB79-1501). […] Consequently, AB79 may be more efficient at eliminating cells expressing high levels of CD38, which could manifest as higher activity on tumor cells (e.g., improved and deeper response rates across a population of patients with myeloma).
AB79 IV reduced the levels of peripheral blood NK cells >90% from baseline levels in all subjects receiving a single 0.06 mg/kg IV dose, with a Cmax of 0.1 μg/mL. […] As a potent and convenient second-generation anti-CD38 mAb, AB79 SC warranted therapeutic development for the treatment of multiple myeloma (MM).

AB79: anti-CD38 monoclonal IgG1 antibody; heavy chain SEQ ID NO:11, light chain SEQ ID NO:12
Kd (human CD38): 5.4 nM
preliminary objective response rate (ORR) [1]: 100%
reduction of levels of circulating plasmablasts in peripheral blood [2]: dose-dependent manner
